Tested on: multidrug-resistant (MDR) strains of Mycobacterium tuberculosis
Assay: microbe, parasite or virus in culture
Assay type: cell-based
Conditions: 192 h, read-out: MIC MDR-TB

| Compound | MIC [µg/mL] |
| --- | --- |
| O=C(C[n+]1ccc(/C=N/O)cc1)c1ccccc1.[Br-] [Compound 3a, (E)-4-((Hydroxyimino)methyl)-1-(2-oxo-2-phenylethyl)pyridin-1-ium bromide] | 64 |
| O=C(C[n+]1ccc(/C=N/O)cc1)c1ccc(Br)cc1.[Br-] [Compound 3b, (E)-1-(2-(4-Bromophenyl)-2-oxoethyl)-4-((hydroxyimino)methyl)pyridin-1-ium bromide] | 64 |
| O=C(C[n+]1ccc(/C=N/O)cc1)c1ccc(F)cc1.[Br-] [Compound 3c, (E)-1-(2-(4-Fluorophenyl)-2-oxoethyl)-4-((hydroxyimino)methyl)pyridin-1-ium bromide] | 128 |
| N#Cc1ccc(C(=O)C[n+]2ccc(/C=N/O)cc2)cc1.[Br-] [Compound 3d, (E)-1-(2-(4-Cyanophenyl)-2-oxoethyl)-4-((hydroxyimino)methyl)pyridin-1-ium bromide] | 128 |
| O=C(C[n+]1ccc(/C=N/O)cc1)c1ccccc1[N+](=O)[O-].[Br-] [Compound 3e, (E)-4-((Hydroxyimino)methyl)-1-(2-(2-nitrophenyl)-2-oxoethyl)pyridin-1-ium bromide] | 64 |
